Series [1] in a line: refractive index (Na D-line) (dimensionless). The following applies: 298.15 K; 101.33 kPa; Liquid; Standard Abbe refractometry.
The conditions of series [2]: Liquid; for mass density: 298.15 K, 101.33 kPa, Vibrating tube method; for Normal boiling temperature: Ebulliometric method (Recirculating still).

Numbers after ± are expanded uncertainties.

Take `CCCCC(CC)COC(C)=O` (stereo not drawn) [2-ethylhexyl acetate]: in series [1], the refractive index is listed as 1.4205 ± 0.0007. Besides, in series [2], the mass density came to 872.25 ± 0.24 kg/m3 and the Normal boiling temperature stood at 199.10 ± 0.2 °C.

As for `CC(=O)O` [acetic acid], in series [1], the refractive index turned out to be 1.3713 ± 0.0007. Further, in series [2], the mass density is recorded as 1049.42 ± 0.08 kg/m3 and the Normal boiling temperature came out at 118.1 ± 1 °C.

As to `O` [water], the refractive index in series [1] amounted to 1.3324 ± 0.0007. The Normal boiling temperature in series [2] worked out at 100.1 ± 1 °C.

For the origin of these results see the NIST ThermoML archive (doi:10.1016/j.fluid.2014.07.032).
